Values of other authors as cited in patent US8133870B2, “Therapeutic furopyrimidines and thienopyrimidines” (BioCryst Pharmaceuticals, Inc., priority 2004, dated 2012).

Tested on: HCV

## NC(=O)c1ncn([C@@H]2O[C@H](CO)[C@@H](O)[C@H]2O)n1 [Ribavirin, 1-β-D-ribofuranosyl-1-1,2,4-triazole-3-carboxamide]
ribavirin
  toxicity: significant toxicity
Ribavirin alone, patients
  patients in whom serum amino transferase levels are reduced to normal: 40%
  serum levels of HCV-RNA: does not lower serum levels of HCV-RNA
